# Assay: percent drug eluted over time from coated stent
# Type: physicochemical
# Conditions: base coat podophyllotoxin, Cyclops-12, in THF; Cyclops-9 cap coat with THF as cap coat solvent (FIG. 6) vs acetone (FIG. 5)
# Excerpt: The cap coating examples may be compatible with a variety of base coats of the present invention. In one embodiment, the cap coat provided by example 9 (e.g., Cyclops-9 in acetone) may be used with a base coat provided by example 6 (e.g., Resten-NG, PVPP, in methanol-water mix). The use of a cap coat may influence the release profile of the therapeutic agent, or drug. […] The stent is base coated with a Resten-NG, PVPP in methanol/water mixed solvent and (optionally) cap coated with a Cyclops-9 in acetone mixture.
# In another embodiment, the cap coat provided by example 9 (e.g., Cyclops-9 in acetone or THF) may be used with a base coat provided by example 8 (e.g., podophyllotoxin, Cyclops-12, in THF). Depending on the solvent chosen for the cap coat (e.g., acetone or THF), a different drug release profile may be obtained. […] Thus, the drug release profile may be altered by using a different cap coat solvent.
structure (smiles),measurement,value
COc1cc([C@@H]2c3cc4c(cc3[C@H](O)[C@H]3COC(=O)[C@H]23)OCO4)cc(OC)c1OC [podophyllotoxin],elution rate (percent drug eluted over time),marked increase in elution rate
